Measurements: publication PMC7238120, “Strong and Selective Inhibitory Effects of the Biflavonoid Selamariscina A against CYP2C8 and CYP2C9 Enzyme Activities in Human Liver Microsomes” (Pharmaceutics, 2020)
Where two headings read alike, the source gives them in different places.

How the values were obtained:
CYP2C8 = target: T1, CYP2C8 (Homo sapiens, UniProt P10632); conditions: read-out: IC50, CYP2C8, known inhibitor; cited from earlier work
T1 sequence (P10632 1-490): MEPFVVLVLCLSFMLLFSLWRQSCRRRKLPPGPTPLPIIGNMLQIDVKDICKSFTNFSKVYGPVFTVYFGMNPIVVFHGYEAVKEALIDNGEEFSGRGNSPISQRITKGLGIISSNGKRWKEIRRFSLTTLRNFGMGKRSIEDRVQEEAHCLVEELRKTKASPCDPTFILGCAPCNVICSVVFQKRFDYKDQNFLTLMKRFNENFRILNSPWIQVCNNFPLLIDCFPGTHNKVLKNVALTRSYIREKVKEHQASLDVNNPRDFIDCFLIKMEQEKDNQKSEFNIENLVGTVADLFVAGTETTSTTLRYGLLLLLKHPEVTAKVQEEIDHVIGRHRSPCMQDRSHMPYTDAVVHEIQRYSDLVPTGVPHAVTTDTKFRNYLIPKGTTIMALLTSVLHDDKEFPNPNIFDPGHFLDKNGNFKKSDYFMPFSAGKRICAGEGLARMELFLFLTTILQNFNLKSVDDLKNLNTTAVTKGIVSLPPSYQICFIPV

UGT1A1 [1] = target: T2, UGT1A1 (Homo sapiens, UniProt P22309); set-up: method as in PMID 29470958; conditions: read-out: IC50, UGT1A1, previously reported value; cited from earlier work
T2 sequence (P22309 26-533): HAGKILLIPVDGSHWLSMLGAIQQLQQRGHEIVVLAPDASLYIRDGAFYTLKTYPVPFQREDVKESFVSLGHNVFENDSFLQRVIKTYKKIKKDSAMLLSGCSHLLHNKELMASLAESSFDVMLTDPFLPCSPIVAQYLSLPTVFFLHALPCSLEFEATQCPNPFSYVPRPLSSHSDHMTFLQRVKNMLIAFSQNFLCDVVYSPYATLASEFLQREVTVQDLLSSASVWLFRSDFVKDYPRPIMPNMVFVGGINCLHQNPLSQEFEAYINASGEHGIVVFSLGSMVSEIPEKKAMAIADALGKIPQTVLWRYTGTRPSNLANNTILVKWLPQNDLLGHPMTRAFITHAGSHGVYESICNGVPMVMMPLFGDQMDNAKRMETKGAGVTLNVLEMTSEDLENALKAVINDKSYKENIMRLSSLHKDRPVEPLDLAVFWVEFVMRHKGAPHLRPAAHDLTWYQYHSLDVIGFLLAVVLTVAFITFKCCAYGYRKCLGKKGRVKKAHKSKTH

UGT1A1 [2] = target: T2, UGT1A1; test: Inhibition of UGT1A1 (SN-38 glucuronidation) in human liver microsomes; format: in vitro ADME; set-up: tissue XenoTech XTreme 200; host or cells: pooled human liver microsomes; conditions: substrate SN-38; HLMs 0.25 mg/mL; average ± standard error
Procedure: The ability of selamariscina A to inhibit the metabolism of six UGT enzyme probe substrates was evaluated using previously developed methods with minor modifications. The microsomal incubation was performed by dividing the non-interactive substrate cocktail sets (set A included SN-38 for UGT1A1, CDCA for UGT1A3 and TFP for UGT1A4 while set B included N-SER for UGT1A6, MPA for UGT1A9 and NX for UGT2B7) (Table 2). In brief, HLMs (0.25 mg/mL) were activated by incubation in the presence of alamethicin (25 µg/mL) for 15 min on ice. After the addition of UGT probe substrates and inhibitor (0, 0.5, 2, 5, 20 and 50 μM), the incubation mixtures were pre-incubated at 37 °C for 5 min. […] After centrifugation at 18,000 g (5 min, 4 °C), aliquots of supernatants were analyzed by LC–MS/MS. […]
All metabolites and the IS were separated on a Kinetex XB-C18 column (100 × 2.10 mm, 2.6 μm, 100 Å; Phenomenex, Torrance, CA, USA) and analyzed using a Shimadzu LCMS 8060 triple-quadrupole mass spectrometer coupled with a Nexera X2 ultra high-performance liquid chromatography system (Shimadzu, Kyoto, Japan) equipped with an electrospray ionization interface. […] Quantitation was conducted in selected reaction monitoring (SRM) modes with the precursor-to-product ion transition for each metabolite (Table 1 and Table 2).
We analyzed the data with Shimadzu LabSolution LC–MS software. […]

| Compound | IC50 (CYP2C8) [nM] | IC50 (UGT1A1 [1]) [nM] | IC50 (UGT1A1 [2]) [nM] |
| --- | --- | --- | --- |
| CC(C)(O)c1ccccc1CC[C@@H](SCC1(CC(=O)O)CC1)c1cccc(/C=C/c2ccc3ccc(Cl)cc3n2)c1 [montelukast, reference compound] | 20 |  |  |
| O=c1cc(-c2ccc(O)c(-c3c(O)cc(O)c4c(=O)cc(-c5ccc(O)cc5)oc34)c2)oc2cc(O)cc(O)c12 [amentoflavone] |  | 780 | 1700 |
| O=C1CC(c2cc(-c3c(O)ccc4c(=O)cc(-c5ccc(O)cc5)oc34)c(O)cc2O)Oc2cc(O)cc(O)c21 (stereo not shown) [selamariscina A] |  |  | 1700 ± 500 |
